This assay deals with CD2F1 mice, L1210 leukemia ip, survival T/C. Description: NCI In Vivo Anticancer Drug Screen. Data for tumor model L1210 Leukemia (intraperitoneal) in CD2F1 (CDF1) mice. As to conditions: endpoint: mean survival time, higher = longer survival. Summed up: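 Ratio T/C, where T is the treated-group value and C the vehicle-dosed control value, from mice implanted with a transplantable tumor.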

[1] abbreviates: dose: 100.0 mg/kg/injection, schedule: Q04DX003 (ip), vehicle: saline with Tween-80.
The mark [2] stands for this setting: dose: 200.0 mg/kg/injection, schedule: Q04DX003 (ip), vehicle: saline with Tween-80.
The mark [3] stands for this setting: dose: 400.0 mg/kg/injection, schedule: Q04DX003 (ip), vehicle: saline with Tween-80.
Where [4] appears, read: dose: 100.0 mg/kg/injection, schedule: Q01DX009 (ip), vehicle: saline with Tween-80.
Where [5] appears, read: dose: 200.0 mg/kg/injection, schedule: Q01DX009 (ip), vehicle: saline with Tween-80.
[6] abbreviates: dose: 400.0 mg/kg/injection, schedule: Q01DX009 (ip), vehicle: saline with Tween-80.
[7] abbreviates: dose: 12.5 mg/kg/injection, schedule: Q04DX002 (ip), vehicle: saline with Tween-80.
The mark [8] stands for this setting: dose: 100.0 mg/kg/injection, schedule: Q01DX001 (ip), vehicle: saline with Tween-80.
Where [9] appears, read: dose: 400.0 mg/kg/injection, schedule: Q01DX001 (ip), vehicle: saline with Tween-80.

“And” between values parts separate entries of the source, which are not always exact repeats. Identical values can stand only once. Inconclusive results and toxic doses are left out.

Turning to `Cc1cc2c(cc1C)C(=O)c1ccccc1C2=O`, the T/C was 102 % of control (dose: 50.0 mg/kg/injection, schedule: Q01DX009 (ip), vehicle: saline); 93 % of control (dose: 100.0 mg/kg/injection, schedule: Q01DX009 (ip), vehicle: saline); 97 % of control (dose: 100.0 mg/kg/injection, schedule: Q04DX003 (ip), vehicle: saline); 89 % of control (dose: 200.0 mg/kg/injection, schedule: Q04DX003 (ip), vehicle: saline).

Take `O=C(Cn1cc[n+](CC(=O)c2ccccc2)c1)c1ccccc1`: the T/C under setting [1] was 109 % of control.

For `O=C1c2ccccc2S(=O)(=O)c2cccc(S(=O)(=O)c3ccccc3)c21`, the T/C reads like this: under setting [1], 98 % of control; under setting [2], 95 % of control; under setting [3], 90 % of control.

For the molecule `CCCCCCCCCCCCCCCCCCNC(=O)Nc1ccc(C)c(C)c1`, the T/C is, setting by setting: under setting [4], 104 % of control; under setting [1], 91 % of control; under setting [5], 105 % of control; under setting [2], 89 % of control; under setting [6], 105 % of control; under setting [3], 98 % of control.

For `Cc1onc(-c2ccccc2)c1C(=O)O`, the T/C runs as follows: under setting [1], 101 % of control; under setting [2], 93 % of control; under setting [3], 89 % of control.

Turning to `COc1ccc2c(c1)C1CCCC(=O)C1N2` (stereo unspecified), the T/C under setting [4] was 97 % of control, the T/C under setting [5] is 91 % of control and the T/C under setting [6] was 91 % of control.

For the molecule `Nc1ncnc2nc(-c3ccc(Cc4ccccc4)cc3)[nH]c12`, the T/C is 96 % of control (dose: 0.63 mg/kg/injection, schedule: Q01DX009 (ip), vehicle: saline); 95 % of control (dose: 1.25 mg/kg/injection, schedule: Q01DX009 (ip), vehicle: saline); 95 % of control (dose: 2.5 mg/kg/injection, schedule: Q01DX009 (ip), vehicle: saline).

As to `O=[N+]([O-])O.[Cu+2].[NH-]C1CCCCC1[NH-].[NH-]C1CCCCC1[NH-]` (stereo unspecified), the T/C under setting [7] was 94 % of control.

`O=C1C=CC(c2ccccc2)(c2ccccc2)C=C1`: the T/C by setting is: under setting [8], 93 % of control; under setting [9], 86 % of control.

With `COc1cc2nc(C(O)C(O)c3nc4cc(OC)c(OC)cc4[nH]3)[nH]c2cc1OC` (stereo unspecified), the T/C reads like this: under setting [1], 101 % of control; under setting [2], 98 % of control.

Take `Nc1nc(SSc2nc(N)nc3c2ncn3C2OC(CO)CC2O)c2ncn(C3OC(CO)CC3O)c2n1` (stereo unspecified): the T/C (dose: 300.0 mg/kg/injection, schedule: Q01DX001 (ip), vehicle: saline) is 118 % of control.

Consider `Clc1cc2n[nH]nc2c(Cl)n1`, for which the T/C by setting is: (dose: 25.0 mg/kg/injection, schedule: Q01DX009 (ip), vehicle: water) 90 % of control; (dose: 50.0 mg/kg/injection, schedule: Q01DX009 (ip), vehicle: water) 90 % of control; (dose: 100.0 mg/kg/injection, schedule: Q01DX009 (ip), vehicle: water) 90 % of control.

As to `N#C/C(=C\C=C\c1cccc([N+](=O)[O-])c1)c1ccccc1`, the T/C under setting [8] was 96 % of control; the T/C under setting [4] is 100 % of control and 103 % of control; the T/C (dose: 100.0 mg/kg/injection, schedule: Q04DX002 (ip), vehicle: saline with Tween-80) was 102 % of control; the T/C under setting [1] was 97 % of control; the T/C (dose: 200.0 mg/kg/injection, schedule: Q01DX001 (ip), vehicle: saline with Tween-80) is 105 % of control; the T/C under setting [5] is 96 % of control and 107 % of control. Further, the T/C was 98 % of control (dose: 200.0 mg/kg/injection, schedule: Q04DX002 (ip), vehicle: saline with Tween-80); 105 % of control under setting [2]; 97 % of control under setting [9]; 94 % of control and 100 % of control under setting [6]; 100 % of control (dose: 400.0 mg/kg/injection, schedule: Q04DX002 (ip), vehicle: saline with Tween-80); 94 % of control under setting [3].

As for `O=C(C[n+]1csc2ccccc21)c1ccccc1`, the T/C was 106 % of control under setting [4]; 97 % of control under setting [1]; 92 % of control under setting [5]; 106 % of control under setting [2]; 87 % of control under setting [6]; 109 % of control under setting [3].

Consider `CC1CCC(=O)O1` (stereo unspecified), for which the T/C was 98 % of control (dose: 100.0 mg/kg/injection, schedule: Q04DX002 (ip), vehicle: saline); 98 % of control (dose: 200.0 mg/kg/injection, schedule: Q04DX002 (ip), vehicle: saline); 98 % of control (dose: 400.0 mg/kg/injection, schedule: Q04DX002 (ip), vehicle: saline).

With `O=[N+]([O-])c1c[n+]([O-])ccc1Cl`, the T/C is 101 % of control (dose: 5.0 mg/kg/injection, schedule: Q01DX001 (ip), vehicle: saline) and 103 % of control (dose: 10.0 mg/kg/injection, schedule: Q01DX001 (ip), vehicle: saline).

For the molecule `COC(=O)C(O)c1ccc2c(c1)OCO2` (stereo unspecified), the T/C runs as follows: under setting [4], 97 % of control; under setting [5], 90 % of control; under setting [6], 90 % of control.

On to `NP(=O)(OCCCOCc1ccccc1)N(CCCl)CCCl` (stereo unspecified), for which the T/C by setting is: (dose: 12.5 mg/kg/injection, schedule: Q01DX005 (ip), vehicle: water) 95 % of control; (dose: 25.0 mg/kg/injection, schedule: Q01DX005 (ip), vehicle: water) 94 % of control; (dose: 50.0 mg/kg/injection, schedule: Q01DX005 (ip), vehicle: water) 100 % of control; (dose: 100.0 mg/kg/injection, schedule: Q01DX005 (ip), vehicle: water) 100 % of control; (dose: 200.0 mg/kg/injection, schedule: Q01DX005 (ip), vehicle: water) 101 % of control.

`OCC1OC(n2cnc3c(Nc4ccccc4)ncnc32)C(O)C1O` (stereo unspecified): the T/C was 102 % of control (dose: 12.5 mg/kg/injection, schedule: Q01DX005 (ip), vehicle: distilled water + Tween-80); 100 % of control (dose: 25.0 mg/kg/injection, schedule: Q01DX005 (ip), vehicle: distilled water + Tween-80); 100 % of control (dose: 50.0 mg/kg/injection, schedule: Q01DX005 (ip), vehicle: distilled water + Tween-80); 94 % of control (dose: 100.0 mg/kg/injection, schedule: Q01DX005 (ip), vehicle: distilled water + Tween-80); 98 % of control (dose: 200.0 mg/kg/injection, schedule: Q01DX005 (ip), vehicle: distilled water + Tween-80).

With `O=NN(CCCl)C(=O)NCCc1cccc[n+]1[O-]`, the T/C (dose: 1.56 mg/kg/injection, schedule: Q01DX001 (ip), vehicle: water) is 108 % of control; the T/C (dose: 3.13 mg/kg/injection, schedule: Q01DX001 (ip), vehicle: water) was 116 % of control; the T/C (dose: 6.25 mg/kg/injection, schedule: Q01DX001 (ip), vehicle: water) was 121 % of control; the T/C (dose: 25.0 mg/kg/injection, schedule: Q01DX001 (ip), vehicle: water) was 173 % of control; the T/C (dose: 50.0 mg/kg/injection, schedule: Q01DX001 (ip), vehicle: water) is 309 % of control; the T/C (dose: 100.0 mg/kg/injection, schedule: Q01DX001 (ip), vehicle: water) is 240 % of control.

As to `CN1C(=O)CC(c2ccc(NC(=O)CI)cc2)C1=O` (stereo unspecified), the T/C was 92 % of control (dose: 6.25 mg/kg/injection, schedule: Q04DX002 (ip), vehicle: saline with Tween-80) and 96 % of control under setting [7].

The values above are taken from PubChem BioAssay AID256 (DTP/NCI, 2004).
